Test results: PubChem BioAssay (NCI)
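Assay format: 96-well plates, 48-hour exposure. GI50 is the concentration that inhibits growth by half. Definition used: TGI = concentration required for complete inhibition of growth.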

Columns and labels:
Assay in all cases: DTP human tumour cell line panel, 48 h
SF-268 CNS = test system: SF-268 CNS
CCRF-CEM leukemia = test system: CCRF-CEM leukemia
A498 renal = test system: A498 renal
SK-MEL-28 melanoma = test system: SK-MEL-28 melanoma
SK-MEL-2 melanoma = test system: SK-MEL-2 melanoma
SNB-19 CNS = test system: SNB-19 CNS
EKVX NSCLC = test system: EKVX NSCLC
PC-3 prostate = test system: PC-3 prostate
NCI-H460 lung = test system: NCI-H460 lung
K-562 leukemia = test system: K-562 leukemia
RXF 393 renal = test system: RXF 393 renal
U251 CNS = test system: U251 CNS
NCI-H23 lung = test system: NCI-H23 lung
MALME-3M melanoma = test system: MALME-3M melanoma
CAKI-1 renal = test system: CAKI-1 renal
UACC-62 melanoma = test system: UACC-62 melanoma
NCI-H226 lung = test system: NCI-H226 lung
HOP-62 NSCLC = test system: HOP-62 NSCLC
TK-10 renal = test system: TK-10 renal
NCI/ADR-RES ovarian = test system: NCI/ADR-RES ovarian
COLO 205 colon = test system: COLO 205 colon
NCI-H522 lung = test system: NCI-H522 lung
OVCAR-3 ovarian = test system: OVCAR-3 ovarian
SF-539 CNS = test system: SF-539 CNS
OVCAR-5 ovarian = test system: OVCAR-5 ovarian
IGROV1 ovarian = test system: IGROV1 ovarian
T-47D breast = test system: T-47D breast
LOX IMVI melanoma = test system: LOX IMVI melanoma
SN12C renal = test system: SN12C renal
A549 NSCLC = test system: A549 NSCLC

CCCCSc1nc(Nc2ccc(/C(C)=N/NC(N)=S)cc2)c(C#N)c(-c2ccc(OC)cc2)n1
TGI (SF-268 CNS): > 100 µM | GI50 (CCRF-CEM leukemia): > 100 µM | TGI (CCRF-CEM leukemia): > 100 µM | GI50 (A498 renal): 10.6 µM | TGI (A498 renal): 22.4 µM | GI50 (SK-MEL-28 melanoma): 35.8 µM | TGI (SK-MEL-28 melanoma): > 100 µM | GI50 (SK-MEL-2 melanoma): 26.3 µM | TGI (SK-MEL-2 melanoma): 85.4 µM | GI50 (SNB-19 CNS): 14.3 µM | TGI (SNB-19 CNS): 27.3 µM | GI50 (EKVX NSCLC): 56.4 µM | TGI (EKVX NSCLC): > 100 µM | GI50 (PC-3 prostate): > 100 µM | TGI (PC-3 prostate): > 100 µM | GI50 (NCI-H460 lung): 9.33 µM | TGI (NCI-H460 lung): 31.1 µM | GI50 (K-562 leukemia): > 100 µM | TGI (K-562 leukemia): > 100 µM | GI50 (RXF 393 renal): 5.2 µM | TGI (RXF 393 renal): 18.1 µM | GI50 (U251 CNS): 6.88 µM | TGI (U251 CNS): 19.9 µM | GI50 (NCI-H23 lung): 6.46 µM | TGI (NCI-H23 lung): 19 µM | GI50 (MALME-3M melanoma): 5.85 µM | TGI (MALME-3M melanoma): 20 µM | GI50 (CAKI-1 renal): 18.3 µM | TGI (CAKI-1 renal): 54.1 µM | GI50 (UACC-62 melanoma): 15.6 µM | TGI (UACC-62 melanoma): 34.1 µM | GI50 (NCI-H226 lung): 11.9 µM | TGI (NCI-H226 lung): 27.5 µM | GI50 (HOP-62 NSCLC): 15.6 µM | TGI (HOP-62 NSCLC): 30.1 µM | GI50 (TK-10 renal): 13.8 µM | TGI (TK-10 renal): 27.4 µM | GI50 (NCI/ADR-RES ovarian): 5.76 µM | TGI (NCI/ADR-RES ovarian): > 100 µM | GI50 (COLO 205 colon): > 100 µM | TGI (COLO 205 colon): > 100 µM | GI50 (NCI-H522 lung): 13.9 µM | TGI (NCI-H522 lung): 28.6 µM | GI50 (OVCAR-3 ovarian): 21.5 µM | TGI (OVCAR-3 ovarian): 44.3 µM | GI50 (SF-539 CNS): 3.14 µM | TGI (SF-539 CNS): 12.8 µM | GI50 (OVCAR-5 ovarian): 28.1 µM | TGI (OVCAR-5 ovarian): 93.9 µM | GI50 (IGROV1 ovarian): 19.5 µM | TGI (IGROV1 ovarian): 40 µM | GI50 (T-47D breast): 12.5 µM | TGI (T-47D breast): 36.7 µM | GI50 (LOX IMVI melanoma): 3.9 µM | TGI (LOX IMVI melanoma): 17.9 µM | GI50 (SN12C renal): 18.7 µM | TGI (SN12C renal): 37 µM | GI50 (A549 NSCLC): 16.5 µM | TGI (A549 NSCLC): 40.9 µM
